# From patent publication US5776935A, “Pyrido-phtalazin diones and their use against neurological disorders associated with excitotoxicity and malfunctioning of glutamatergic neurotransmission” (Merz & Co. GmbH & Co., priority 1996, dated 1998)
# System: organic acid transport
# Assay: Duration of anticonvulsive action with and without probenecid
# Assay type: in vivo, mouse
# Conditions: listed as 2/514
# Protocol: To assess NMDA receptor antagonistic properties of the tested agents by assessing anticonvulsive effects. Additionally the role of organic acid transporters in the elimination from the brain of tested agents was assessed by using an inhibitor, Probenicid, on the duration of anticonvulsive activity.
# Male albino Swiss mice (19-21 g) housed 10-15 per cage were used for the NMDA lethality test (Leander et al., 1988). For pentylenetetrazol (PTZ)-induced convulsions male albino Swiss mice (25-34 g.) housed 40 per cage (58×38×20 cm) were used while in the maximal electroshock (MES) and motor impairment tests NMR female mice (18-28 g) housed 5 per cage were employed. All animals were kept with water and food ad libittum under a 12-h light-dark cycle (light on at 6 a.m.), and at a controlled temperature (20°±0.5° C.). All experiments were performed between 10 a.m. and 5 p.m. Tested agents were injected 15 min. i.p before the induction of convulsions if not stated otherwise (see below). Mrz 2/502 was dissolved in saline added with NaOH. Most other agents were dissolved in the following solution: 0.606 g Tris; 5.0 g. glucose; 0.5 g. Tween 80; and 95 ml water. The choline and tetramethylammonium salts were dissolved in distilled water.
# MES (100 Hz, 0.5 sec shock duration, 50 mA shock intensity, 0.9 ms impulse duration, Ugo Basile) was applied through corneal electrodes. The presence of tonic convulsions was scored (tonic extension of hind paws with minimum angle to the body of 90°). In an additional experiment mice were injected with Probenicid (200 mg/kg) 30 min before administration of the tested agents to assess the role of organic acid transport in elimination (duration of action). The aim was to obtain ED50 s for all parameters scored using the Litchfield Wilcoxon (1949) test for quantal dose responses.
# Moreover it seems that choline salts have a longer duration of action. Probenecid injection prolonged considerably the duration of anticonvulsive action of all agents tested. For example the half lives of 2/514 and 2/570 were around 40 and 80 minutes respectively in the absence of probenicid. In the presence of probenicid the half lives were prolonged to around 180 and 210 minutes respectively. Thus, it seems that organic acids transport in the choroid plexus out of the brain plays an important role in the short duration of action of the compounds tested..
compound,measurement,setting,value
"O=c1[nH]nc(O)c2c1cc1cc(Br)ccc1[n+]2[O-] [Mrz 2/514, 8-bromo-4-hydroxy-1-oxo-1,2-dihydropyridazino[4,5-b]-quinoline 5-oxide]",half life of anticonvulsive action,absence of probenecid,around 40 minutes
same,half life of anticonvulsive action,"presence of probenecid 200 mg/kg, 30 min before",around 180 minutes
